# Data as given in US9266904B2, “6-bridged heteroaryldihydropyrimidines for the treatment and prophylaxis of hepatitis B virus infection” (priority 2013, dated 2016).
# Like-named read-outs stand apart in the source and are kept apart here.
# What was measured:
# [1] = system: HBV replication in HepG2.2.15 cells; test: Anti-HBV activity in vitro in HepG2.2.15 cells (extracellular HBV DNA by qPCR); assay type: cell-based; settings: read-out: EC50
# From the text: HepG2.2.15 and HepDE19 are stably-transfected cell lines containing the HBV genome. Both cell lines are derived from the hepatoblastoma cell line Hep G2 (American Type Culture Collection, ATCC® HB-8065™) by the published procedures described in references: M A Selles et al. Proc. Natl. Acad. Sci. USA 1987, 84, 1005-1009 and H Guo et al. Journal of Virology 2007, 81, 12472-12484, respectively. Both cell lines were maintained in Dulbecco's modified Eagle's medium (DMEM)-F12 medium supplemented with 10% fetal bovine serum, 100 U/mL penicillin, 100 μg/mL streptomycin, and 0.5 mg/mL of G418.
# While HepG2.2.15 cells constitutively support HBV replication and production of virus particles, HepDE19 cells are inducible by tetracycline. Addition of 1 μg/mL tetracycline in culture medium suppresses HBV replication in HepDE19 cells, whereas switching to tetracycline-free medium resumes this process.
# HepG2.2.15 cells were seeded into 96-well plates (3×10^4 cells in 100 μL media per well) and incubated overnight at 37° C. The test compounds were serially half-log diluted in DMSO, then diluted 100 times in culture media. 100 μL diluted compounds were added into the plates to reach 0.5% final concentration of DMSO in every well. Five days after compound treatment, culture supernatant was collected for further analysis.
# For quantitative PCR detection of extracellular HBV DNA, 100 μL culture supernatant was collected and processed in MagNA Pure 96 Nucleic Acid Purification System (Roche Applied Science) for viral DNA extraction. The extracted samples were subjected to HBV DNA quantification by qPCR. The effective compound concentration at which HBV replication is inhibited by 50% (EC50) was determined.
# The Examples were tested in the above assays as described herein and found to have EC50<1 μM in HepG2.2.15 assay.
# [2] = Human microsomal clearance assay; assay type: in vitro ADME
# Protocol: Microsomes were preincubated with test compound for 10 minutes at 37° C. in 100 mM phosphate buffer with pH 7.4. The reactions were initiated by adding NADPH regenerating system to give a final incubation volume of 400 μL. The incubations finally contained 1 μM test compound, 0.5 mg/mL liver microsomal protein, 3.0 mM glucose 6-phosphate, 1.0 mM NADP, 3.0 mM MgCl2 and 0.05 mg/mL glucose 6-phosphate dehydrogenase in 100 mM phosphate buffer with pH 7.4. After incubation times of 0, 3, 6, 9, 15 and 30 minutes, 50 μL, incubation was transferred to the quench solution containing the internal standard which was 2 μM tolbutamide. After precipitation and centrifugation, test compound concentrations in the samples were determined by LC-MS/MS. Controls of no NADPH regenerating system at zero and 30 minutes were also prepared and analyzed.
# [3] = Anti-HBV activity in HepG2.2.15 cells
# [4] = Hepatitis B virus, HepG2.2.15, Anti-HBV activity in HepG2.2.15 cells
Compound,"EC50 [1, 3]",CLh ([2]; human microsomal clearance),"EC50 [1, 4]","CLh ([2]; human, 1 μM, pH 7.4)"
"COC(=O)C1=C(CN2[C@H]3C[C@@H](CC(=O)O)C[C@@H]2C(F)(F)C3)NC(c2nccs2)=N[C@H]1c1ccc(Cl)c(F)c1 [Example 97, 2-[(1S,3R,5R)-8-[[(48)-4-(4-chloro-3-fluoro-phenyl)-5-methoxycarbonyl-2-thiazol-2-yl-1,4-dihydropyrimidin-6-yl]methyl]-6,6-difluoro-8-azabicyclo[3.2.1]octan-3-yl]acetic acid]",0.156 µM,0 mL/min/kg,–,–
"CCOC(=O)C1=C(CN2[C@H]3C[C@@H](CC(=O)O)C[C@@H]2C(F)(F)C3)NC(c2nccs2)=N[C@H]1c1cccc(F)c1Cl [Example 99, 2-[(1S,3R,5R)-8-[[(4R)-4-(2-chloro-3-fluoro-phenyl)-5-ethoxycarbonyl-2-thiazol-2-yl-1,4-dihydropyrimidin-6-yl]methyl]-6,6-difluoro-8-azabicyclo[3.2.1]octan-3-yl]acetic acid]",–,–,0.0126 µM,3 mL/min/kg
"COC(=O)C1=C(CN2[C@H]3C[C@@H](CC(=O)O)C[C@@H]2C(F)(F)C3)NC(c2nccs2)=N[C@H]1c1ccc(F)cc1Cl [Example 87, 2-[(1S,3R,5R)-8-[[(4R)-4-(2-chloro-4-fluoro-phenyl)-5-methoxycarbonyl-2-thiazol-2-yl-1,4-dihydropyrimidin-6-yl]methyl]-6,6-difluoro-8-azabicyclo[3.2.1]octan-3-yl]acetic acid]",–,–,0.0394 µM,0 mL/min/kg
"CCOC(=O)C1=C(CN2C3COCC2C(F)(F)[C@@H](CC(=O)O)C3)NC(c2nccs2)=N[C@H]1c1ccc(F)c(F)c1C (stereo partly drawn) [Example 127, 2-[(7R)-9-[[(4S)-4-(3,4-difluoro-2-methyl-phenyl)-5-ethoxycarbonyl-2-thiazol-2-yl-1,4-dihydropyrimidin-6-yl]methyl]-6,6-difluoro-3-oxa-9-azabicyclo[3.3.1]nonan-7-yl]acetic acid]",–,–,0.0161 µM,2.9 mL/min/kg
"CCOC(=O)C1=C(CN2C3COCC2C(F)(F)[C@@H](CC(=O)O)C3)NC(c2nccs2)=N[C@H]1c1cccc(F)c1Cl (stereo partly drawn) [Example 129, 2-[(7R)-9-[[(4R)-4-(2-chloro-3-fluoro-phenyl)-5-ethoxycarbonyl-2-thiazol-2-yl-1,4-dihydropyrimidin-6-yl]methyl]-6,6-difluoro-3-oxa-9-azabicyclo[3.3.1]nonan-7-yl]acetic acid]",–,–,0.021 µM,2.0 mL/min/kg
"CCOC(=O)C1=C(CN2[C@H]3C[C@@H](CC(=O)O)C[C@@H]2C(F)(F)C3)NC(c2nccs2)=N[C@H]1c1ccccc1Br [Example 93, 2-[(1S,3R,5R)-8-[[(4R)-4-(2-bromophenyl)-5-ethoxycarbonyl-2-thiazol-2-yl-1,4-dihydropyrimidin-6-yl]methyl]-6,6-difluoro-8-azabicyclo[3.2.1]octan-3-yl]acetic acid]",–,–,0.0289 µM,0.2 mL/min/kg
"COC(=O)C1=C(CN2C3COCC2CN(C(N)=O)C3)NC(c2nccs2)=N[C@H]1c1ccc(F)cc1Cl [Example 18, (R)-6-(7-Carbamoyl-3-oxa-7,9-diaza-bicyclo[3.3.1]non-9-ylmethyl)-4-(2-chloro-4-fluoro-phenyl)-2-thiazol-2-yl-1,4-dihydro-pyrimidine-5-carboxylic acid methyl ester]",–,–,0.02 µM,1.3 mL/min/kg
"COC(=O)C1=C(CN2[C@@H]3COC[C@H]2[C@H](F)[C@@H](CC(=O)O)C3)NC(c2nccs2)=N[C@H]1c1cccc(F)c1Cl [Example 100, 2-[(1S,5S,6R,7R)-9-[[(4R)-4-(2-chloro-3-fluoro-phenyl)-5-methoxycarbonyl-2-thiazol-2-yl-1,4-dihydropyrimidin-6-yl]methyl]-6-fluoro-3-oxa-9-azabicyclo[3.3.1]nonan-7-yl]acetic acid]",–,–,0.283 µM,0 mL/min/kg
"COC(=O)C1=C(CN2[C@H]3C[C@H](CC(=O)O)C[C@@H]2C(F)(F)C3)NC(c2nccs2)=N[C@H]1c1ccc(F)cc1Cl [Example 110, 2-[(1S,3S,5R)-8-[[(4R)-4-(2-chloro-4-fluoro-phenyl)-5-methoxycarbonyl-2-thiazol-2-yl-1,4-dihydropyrimidin-6-yl]methyl]-6,6-difluoro-8-azabicyclo[3.2.1]octan-3-yl]acetic acid]",–,–,0.0443 µM,4.1 mL/min/kg
"COC(=O)C1=C(CN2[C@@H]3C[C@H](CC(=O)O)C[C@H]2C(F)(F)C3)NC(c2nccs2)=N[C@H]1c1cccc(F)c1Br [Example 94, 2-[(1R,3S,5S)-8-[[(4R)-4-(2-bromo-3-fluoro-phenyl)-5-methoxycarbonyl-2-thiazol-2-yl-1,4-dihydropyrimidin-6-yl]methyl]-6,6-difluoro-8-azabicyclo[3.2.1]octan-3-yl]acetic acid]",–,–,0.0217 µM,0 mL/min/kg
"COC(=O)C1=C(CN2[C@H]3C[C@@H](CC(=O)O)C[C@@H]2C(F)(F)C3)NC(c2nccs2)=N[C@H]1c1cccc(F)c1Br [Example 95, 2-[(1S,3R,5R)-8-[[(4R)-4-(2-bromo-3-fluoro-phenyl)-5-methoxycarbonyl-2-thiazol-2-yl-1,4-dihydropyrimidin-6-yl]methyl]-6,6-difluoro-8-azabicyclo[3.2.1]octan-3-yl]acetic acid]",–,–,0.0311 µM,0 mL/min/kg
"CCOC(=O)C1=C(CN2[C@@H]3C[C@H](CC(=O)O)C[C@H]2C(F)(F)C3)NC(c2nccs2)=N[C@H]1c1ccccc1Br [Example 92, 2-[(1R,3S,5S)-8-[[(4R)-4-(2-bromophenyl)-5-ethoxycarbonyl-2-thiazol-2-yl-1,4-dihydropyrimidin-6-yl]methyl]-6,6-difluoro-8-azabicyclo[3.2.1]octan-3-yl]acetic acid]",–,–,0.0015 µM,1.7 mL/min/kg
"2-[(1R,5R,7S)-9-[[(4S)-4-(3,4-difluoro-2-methyl-phenyl)-5-methoxycarbonyl-2-thiazol-2-yl-1,4-dihydropyrimidin-6-yl]methyl]-6,6-difluoro-3-oxa-9-azabicyclo[3.3.1]nonan-7-yl]acetic acid or 2-[(1S,5S,7R)-9-[[(4S)-4-(3,4-difluoro-2-methyl-phenyl)-5-methoxycarbonyl-2-thiazol-2-yl-1,4-dihydropyrimidin-6-yl]methyl]-6,6-difluoro-3-oxa-9-azabicyclo[3.3.1]nonan-7-yl]acetic acid [Example 132]",0.0103 µM,2.6 mL/min/kg,–,–
"CCOC(=O)C1=C(CN2C3CC(C(=O)O)CC2C(F)(F)C3)NC(c2nccs2)=N[C@H]1c1cccc(F)c1Cl (stereo partly drawn) [Example 150, 8-[[(4R)-4-(2-chloro-3-fluoro-phenyl)-5-ethoxycarbonyl-2-thiazol-2-yl-1,4-dihydropyrimidin-6-yl]methyl]-6,6-difluoro-8-azabicyclo[3.2.1]octane-3-carboxylic acid]",–,–,0.0077 µM,3.1 mL/min/kg
"CCOC(=O)C1=C(CN2[C@@H]3C[C@H](CC(=O)O)C[C@H]2C(F)(F)C3)NC(c2nccs2)=N[C@H]1c1cccc(F)c1Cl [Example 98, 2-[(1R,3S,5S)-8-[[(4R)-4-(2-chloro-3-fluoro-phenyl)-5-ethoxycarbonyl-2-thiazol-2-yl-1,4-dihydropyrimidin-6-yl]methyl]-6,6-difluoro-8-azabicyclo[3.2.1]octan-3-yl]acetic acid]",–,–,0.0007 µM,4.5 mL/min/kg
